Data as given in publication PMC6349869, “The palladacycle complex AJ-5 induces apoptotic cell death while reducing autophagic flux in rhabdomyosarcoma cells” (Cell Death Discovery, 2019).

Key:
[1] = test system: RH30 and RD cells; assay: Cell cycle analysis (FACS, PI) and cyclin western blots; assay type: cell-based, human
Procedure: Cells were lysed at 4 °C in whole-cell lysis buffer (0.125 M Tris-HCl pH 6.8, 4% SDS, 0.2% glycerol, 0.1% β-mercaptoethanol and a pinch of bromophenol blue) and boiled for 10 min. Proteins were resolved by SDS-PAGE (6–15% gels) and transferred to Hybond ECL membranes (Amersham, UK). The membranes were incubated with primary antibodies: rabbit polyclonal antibodies to phospho-histone H2A.X (Ser139) (#2577), phospho-chk2 (Thr68) (#221), phospho-p38 MAPK (Thr180/Tyr182) (#9211), cleaved caspase-3 (Asp175) (#9661), PARP (#9542), caspase-9 (#9502), LC3B (#2775), p38 MAPK (#9212), rabbit monoclonal antibody to cleaved caspase-7 (Asp198) (D6H1) (#8438), mouse monoclonal antibodies to phospho-ATM (Ser1981) (D6H9) (#5883), Cyclin B1 (V152) (#4135), Caspase-8 (1C12) (#9746), SQSTM1/p62 (D5L7G) (#88588) from Cell Signaling Technology (Massachusetts, USA); mouse monoclonal antibody to p53 (DO-1) (sc-126), rabbit polyclonal antibodies to p21 (C-19) (sc-397), cyclin A (H-432) (sc-751), cyclin B1 (H-433)(sc-752), PARP-1 (H-250) (sc-7150) from Santa Cruz Biotechnology (Texas, USA); rabbit polyclonal antibody to p38 MAP kinase (M0800) from Sigma Aldrich. […] Densitometry readings were obtained using ImageJ v1.50i[58] and protein expression levels were represented as a ratio of protein of interest/p38 loading control normalized to the vehicletreated control sample where appropriate. […]

[2] = test system: RD cells; assay: Single-cell autophagosome flux analyses; assay type: cell-based, human; details: IC50 48 h
Procedure: The autophagosome flux was calculated from the rate of autophagosome accumulation as previously described. Briefly, this was determined after the complete inhibition of fusion between autophagosomes and lysosomes using 400 nM bafilomycin A1 (B0025; LKT Laboratories Inc., Minnesota, USA).
Cells were transfected with a GFP-LC3 construct using Lipofectamine 3000 (L3000001; Thermo Fisher Scientific) according to the manufacturer’s instructions and maintained for 2 days in order to achieve high levels of GFP-LC3 expression.
Autophagosome, autolysosome and lysosome pool size was assessed by supplementing the culture media with 25 nM LysoTracker Red (L7528; Thermo Fisher Scientific) 2 h prior to image acquisition. An LSM 780 confocal with ELYRA S.1 Superresolution platform (Carl Zeiss) was used for image acquisition. The eight-chamber dish was placed in a heated chamber maintained at 5% CO2 that encased the microscope objective. An LCI Plan-Apochromat ×63/1.4 oil DIC M27 objective was used and samples were excited with an Argon multiline laser 25 mW at 488 and 514 nm with appropriate beam splitters and GaAsP detector 32+2 PMT. Multiple z layers were acquired with […] step width. Laser power and electron gain were set to achieve an optimal signal to noise ratio without causing photo-toxicity. […]

[3] = test system: HT1080 cells; assay: MTT cell viability assay, HT1080 fibrosarcoma; assay type: cell-based, human; details: 48 h
[4] = Pharmacokinetics in whole blood of healthy mice; assay type: in vivo, MF1 mice; details: for Cmax: measured as Pd
Procedure: Pharmacokinetic parameters of AJ-5 were determined after IV, IP and PO dosing to MF1 nude mice randomly divided into groups. AJ-5 was prepared in the respective formulations immediately prior to dosing. For the IV group, the compound was made up in a mixture of 10% DMSO and 90% of an IV mixture, which consisted of 60% propylene glycol, 10% ethanol and 30% polyethylene glycol. For the PO group, AJ-5 was dissolved in DMSO and a hydroxypropylmethylcellulose solution (0.5% in water) containing 0.2% Tween 80 in a ratio of 1:9. For the IP group, AJ-5 was dissolved in 10% DMSO and 90% phosphate buffer solution. Mice were permitted access to food and water ad libitum. AJ-5 was administered (100 μL) by oral gavage at a dose of 20 mg/kg (n = 3), intravenously into the penile dorsal vein at a dose of 2 mg/kg (n = 2) and intraperitoneally at a dose of 2 mg/kg (n = 3).
Blood samples (20 μL per sample) were collected by tail tip bleeding in lithium heparin tubes at predetermined time points to evaluate the kinetic profile over 24 h. Samples were stored at −80 °C until analysis. Blood samples together with calibration standards and quality controls were quantified using inductively coupled plasma mass spectrometry. All results reported are for palladium (Pd). Pharmacokinetic parameters of the AJ-5 complex were determined using non-compartmental analysis in PK Solutions 2.0 (Summit Research Systems, Montrose CO, USA).

For `CC(C)c1cccc(C(C)C)c1[N+]1=Cc2cccc[c]2[Pd-2]1([Cl])[P+](CC[P+](c1ccccc1)(c1ccccc1)[Pd-2]1([Cl])[c]2ccccc2C=[N+]1c1c(C(C)C)cccc1C(C)C)(c1ccccc1)c1ccccc1` (stereo not shown) [AJ-5], the Cell cycle progression ([1]; IC50, 24 and 48 h, FACS) was “induces a G1 cell cycle arrest”, the “Levels of cyclin A and cyclin B” value ([1]; western blotting) was “decrease” and the “Autolysosome pool size and autophagosome flux J” value [2] was “significantly decreased”. For the same compound, the IC50 [3] was < 0.3 µM, the “AUC0-∞” value ([4]; IP 2 mg/kg) was 88 ± 67 µmol·min/L and the BA ([4]; IP 2 mg/kg) was 49 ± 38%. The Tmax ([4]; IP 2 mg/kg) was 4.0 ± 0.00 h, the “area under the curve” value ([4]; IP 2 mg/kg) was 88 min.µM/L and the Cmax ([4]; IP 2 mg/kg) was 0.03 ± 0.01 µM. The “AUC0-∞” value ([4]; IV 2 mg/kg) was 179 ± 12 µmol·min/L, the CL ([4]; IV 2 mg/kg) was 0.552 L/h/kg and the Vd ([4]; IV 2 mg/kg) was 8.8 L/kg. The t1/2 ([4]; IV 2 mg/kg, 2 mg/kg) was 11.2 ± 4.8 h, the “AUC0-∞” value ([4]; PO 20 mg/kg) was 11 ± 2 µmol·min/L and the BA ([4]; PO 20 mg/kg) was 1 ± 0.1%. The Tmax ([4]; PO 20 mg/kg) was 0.8 ± 0.3 h, the “area under the curve” value ([4]; PO 20 mg/kg) was 11 min.µM/L and the Cmax ([4]; PO 20 mg/kg) was 0.006 ± 0.007 µM. For the same compound, the “Exposure after IP 2 mg/kg compared to PO 20 mg/kg” value ([4]; ratio of AUC) was “eight-fold higher”.
